This note sets out measurements from US20120252796A1, “COMPOUNDS FOR THE TREATMENT OF DYSLIPIDEMIA AND RELATED DISEASES” (priority 2009, published 2012).

In assay [1] the test system is LPS induced dyslipidemia model C57 mice. Briefly: LDL-C lowering activity in LPS induced dyslipidemia model C57 mice. The format is in vivo. The note with it: male C57 mice, i.p. or oral, 24 hours after LPS, vs Vehicle group. Here is the method: Male C57 mice of 7-10 week age are grouped based on non-fasting LDL-C levels, on next day these mice were administered with Vehicle or test compounds (i.p. or oral) and 30 min after compound administration lipolysaccharide (LPS) was administered. After LPS administration all animals were kept on fasting for 24 hours, after that animals were bled and LDL-C was measured. The percent change in LDL-C in test compound group Vs Vehicle group was calculated.

Assay [2] addresses T1, PCSK9 (Homo sapiens, UniProt Q8NBP7). Nature of the assay: PCSK9-LDLR in vitro Binding Assay (ELISA). In outline: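 Solid-phase ELISA: PCSK9 premixed with compound at varying concentrations added to immobilized recombinant LDLR-AB domain. Bound PCSK9 detected via biotinylated anti-His mAb and HRP-streptavidin, absorbance at 450 nm; EC50 by nonlinear regression from duplicate points.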
Target sequence in this assay (Q8NBP7 153-692): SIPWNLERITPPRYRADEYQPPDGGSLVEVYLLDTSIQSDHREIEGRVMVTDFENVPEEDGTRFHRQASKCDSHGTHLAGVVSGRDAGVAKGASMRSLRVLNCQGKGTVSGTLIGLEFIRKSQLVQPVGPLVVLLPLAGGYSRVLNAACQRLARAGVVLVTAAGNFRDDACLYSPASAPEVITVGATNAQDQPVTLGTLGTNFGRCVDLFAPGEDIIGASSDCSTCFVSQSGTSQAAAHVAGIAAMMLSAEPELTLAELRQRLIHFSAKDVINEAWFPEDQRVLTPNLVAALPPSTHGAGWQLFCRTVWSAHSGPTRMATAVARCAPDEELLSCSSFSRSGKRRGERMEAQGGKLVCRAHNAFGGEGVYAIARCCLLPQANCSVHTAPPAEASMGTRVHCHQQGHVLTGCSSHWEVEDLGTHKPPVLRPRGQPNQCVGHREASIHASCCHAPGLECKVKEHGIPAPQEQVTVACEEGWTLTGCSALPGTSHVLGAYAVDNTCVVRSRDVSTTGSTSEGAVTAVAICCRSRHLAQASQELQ
Target sequence in this assay (Q8NBP7 31-152 partner limits assumed): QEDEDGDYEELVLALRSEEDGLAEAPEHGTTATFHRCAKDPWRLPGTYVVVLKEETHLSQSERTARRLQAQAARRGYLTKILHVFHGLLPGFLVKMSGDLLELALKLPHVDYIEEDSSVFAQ

In assay [3] the target is T1, PCSK9. Nature of the assay: SPR binding studies (BIACORE3000). Particulars: 25° C., phosphate buffer pH 7.4; compounds run at 10 nM, 100 nM and 1 micro mole, concentration of the value not stated. Here is the method: Instrumentation: BIACORE3000 from GE Life Sciences was used and the Interaction analysis was performed at 25° C.
Buffers: phosphate buffer pH 7.4 supplied by Biacore supplemented with 0.01% dimethyl sulfoxide (DMSO) was used as running buffer during the assay.
Immobilization of Ligand: Sensor chip CM5 was used for analysis. The sensor chip consists of a carboxymethyl-modified dextran polymer linked to a gold-covered glass support. The ligand was diluted to 10 micro gram/ml in 10 mM sodium acetate, pH5.0 and immobilized to the sensor chip, using amine coupling. Running buffer without DMSO was used during immobilization. The surface was activated by injecting a solution containing 0.2M N-ethyl-N′-dimethyl aminopropyl-carbodiimide (EDC) and 50 mM N-hydroxy succinimide (NHS). The system was set for Aim for immobilization of about 1000 RU and the surface was blocked by injecting 1 Mehanolamine at pH 8.5. Then the surface was washed with 50 mM NaOH by injecting two 30 second-pulses to remove off non covalently bound ligand and to stabilize the baseline (automated procedure). Activated dextran was used as a reference surface. To ensure highest sensitivity the SPR Detector response was normalized before running the assay. By calibrating the detector at various light intensities under Conditions of total internal reflection (automated procedure). Solvent correction for DMSO was also carried to minimize the error in data.
Assay Design: A binding assay was set up for different compounds at three different concentrations (10 nM, 100 nM and 1 micro mole), and were injected over the reference and Ligand flow cells at a flow rate of 30 micro liter/min. Each cycle consisted of a 1-min waiting period for monitoring of the baseline stability and 3 minute injection of compound with a 5 minute Undisturbed dissociation phase, and the surface was regenerated with 50 mM NaoH solution. Compound responses in the reference flow cell were subtracted with that of ligand and a solvent correction run was carried in between and the binding potential of the compounds was reported as relative response units (RU).
Target sequence in this assay (Q8NBP7 153-692): as the sequence (Q8NBP7 153-692) above

A further assay deals with high fat diet C57 mice. Nature of the assay: LDL-C lowering activity in high fat diet C57 mice. The format is in vivo. The note with it: C57 mice on high fat diet, orally once a day, 4-6 week treatment. The method, then:
The in-vivo LDL-c lowering for test compound was tested in C57 mice which were kept on high fat diet for 4 weeks and the blood was collected by retro-orbital sinus puncture method under light ether anesthesia on day 0 (pretreatment), animal are grouped based on LDL-C levels, after that 4-6 week treatment with vehicle or test compound orally once a day was given. On completion of treatment on day 28 day and or on day 42 of the treatment the blood was collected for LDL-C levels measurement. The percent change in LDL-C in test compound group Vs Vehicle group was calculated.

Assay [4] relates to HF-HC diet fed Syrian golden hamsters. Nature of the assay: Lipid lowering effect in HF-HC diet fed hamster model. Type of assay: in vivo. Set-up: concentration or dose not given beside the values. The note with it: oral gavage once daily, day 14. The source says: In this experiment, Syrian golden hamsters which were kept on high fat—high cholesterol (HF-HC) fructose diet for 2 weeks were divided into various groups based on LDL-C and Total cholesterol levels. The treatment was given by oral gavages once daily for 14 days. The blood was collected by retro-orbital sinus puncture method under light ether anesthesia on day 0 (pretreatment), and day 14 of the treatment for lipid levels measurements. The percent change in LDL-C in compound group Vs Vehicle group was calculated.

With `Cc1ccc(-c2nc(CC3COC(C)(C(=O)NCC4CCOCC4)OC3)c(C)o2)cc1` (centres unmarked) [Example 63, 2-methyl-5-c-((5-methyl-2-(p-tolyl)oxazol-4-yl)methyl)-N—((tetrahydro-2H-pyran-4-yl)methyl)-1,3-dioxane-2-carboxamide], the “% Change in LDL-C” value in assay [1] is −9.0 ± 10.0%. The “% Inhibition PCSK9” value was 39% at PCSK9 [2] (Concentration 1 μM, 1 µM); 40% at PCSK9 [2] (Concentration 10 μM, 10 µM); 51% on PCSK9 [2] (Concentration 100 μM, 100 µM).

Take `Cc1oc(-c2ccncc2)nc1CC1COC(C)(C(=O)NCC2CCOCC2)OC1` (centres unmarked) [Example 84, 2-methyl-5-c-((5-methyl-2-(pyridin-4-yl)oxazol-4-yl)methyl)-N—((tetrahydro-2H-pyran-4-yl)methyl)-1,3-dioxane-2-carboxamide]: in assay [1], the “% Change in LDL-C” value was −25.8 ± 8.6%. Further, the “Relative response (RU)” value at PCSK9 [3] is on record as 2.23 RU. The “% Inhibition PCSK9” value was determined as 25% on PCSK9 [2] (Concentration 1 μM, 1 µM); 29% on PCSK9 [2] (Concentration 10 μM, 10 µM); 65% on PCSK9 [2] (Concentration 100 μM, 100 µM).

As for `Cc1oc(-c2ccccc2)nc1CC1COC(C)(C(=O)NCC2CCOCC2)OC1` (centres unmarked) [Example 8, 2-methyl-5-((5-methyl-2-phenyloxazol-4-yl)methyl)-N—((tetrahydro-2H-pyran-4-yl)methyl)-1,3-dioxane-2-carboxamide], the “% Change in LDL-C” value in assay [1] is on record as −33.5 ± 5.4%. Also, the inhibition at 1 µM at PCSK9 [2] (Concentration 1 μM) turned out to be 18%. The inhibition at 10 µM on PCSK9 [2] (Concentration 10 μM) was found to be 23%. Also, the inhibition at 100 µM on PCSK9 [2] (Concentration 100 μM) amounted to 30%.

For the compound `Cc1nc(-c2ccc(C(F)(F)F)cc2)sc1CC1COC(C)(C(=O)N2CCOCC2)OC1` (centres unmarked) [Example 93, (2-methyl-5-((4-methyl-2-(4-(trifluoromethyl)phenyl)thiazol-5-yl)methyl)-1,3-dioxan-2-yl)(morpholino)methanone], the “% Change in LDL-C” value in assay [1] was −46.0 ± 6.2%. For the same compound, the inhibition at 1 µM on PCSK9 [2] (Concentration 1 μM) came out at 20%. Further, 10 µM produced 16% inhibition at PCSK9 [2] (Concentration 10 μM). Besides, at PCSK9 [2] (Concentration 100 μM), at 100 µM the inhibition was 49%.

For `Cc1oc(-c2ccccc2)nc1CC1COC(C)(C(=O)NO)OC1` (single isomer, unassigned) [Example 4, N-(Hydroxy)-2-methyl-5-((5-methyl-2-phenyloxazol-4-yl)methyl)-1,3-dioxane-2-carboxamide], in the assay with high fat diet C57 mice, the “% Change Vs Vehicle Control HDL-C” value is −5%, the “% Change Vs Vehicle Control LDL-C” value is listed as −24%, the “% Change Vs Vehicle Control TC” value is −14% and the “% Change Vs Vehicle Control TG” value is reported as −35%. Moreover, the “% Change in LDL-C” value in assay [1] was −29.4 ± 4.1%. In addition, at PCSK9 [3], the “Relative response (RU)” value came out at 5.13 RU. The same compound showed an inhibition at 10 µM at PCSK9 [2] (Concentration 10 μM) of 35%. Moreover, the inhibition at 100 µM at PCSK9 [2] (Concentration 100 μM) was 42%. Also, in assay [4], the “% Change Vs Vehicle Control HDL-C” value is −25%, the “% Change Vs Vehicle Control LDL-C” value is −24%, the “% Change Vs Vehicle Control TC” value is −27% and the “% Change Vs Vehicle Control TG” value is reported as −35%.
